Results: patent US5532236A, “[1,2,4]triazolo[4,3-a]quinoxaline compounds” (priority 1993, dated 1996)
One block for each compound: values may come before it.

Legend:
AMPA receptors = conditions: cited from earlier work
AMPA type receptors = experiment: 3H-AMPA binding (Test 1); conditions: rat cerebral cortical membrane homogenate; 5 nM 3H-AMPA; pH 7.1; 0° C., 30 min; read-out: TEST 1 IC50 (displacement of 50% of the specific binding of 3H-AMPA)
Excerpt: AMPA receptor binding may be studied by using ^3 H-AMPA as radioligand.
The pharmacological properties of the compounds of the present invention can be illustrated by determining their capability for displacing radioactively labelled 2-amino-3-hydroxy-5-methyl-4-isoxazolepropionic acid (AMPA) from the AMPA type receptors.
The displacement activity of the compounds may be shown by determining the IC50 value which represents the concentration (μM) which causes a displacement of 50% of the specific binding of ^3 H-AMPA.
^3 H-AMPA binding (Test 1)
500 μl of thawed rat cerebral cortical membrane homogenate in Tris-HCl (30 mM), CaCl2 (2.5 mM) and KSCN (100 mM) pH 7.1 were incubated at 0° C. for 30 min. with 25 μl ^3 H-AMPA (5 nM final concentration) and the test compound and buffer. Nonspecific binding was determined by incubation with L-glutamic acid (600 μM final concentration). The binding reaction was terminated by adding 5 ml of ice-cold buffer followed by filtration through Whatman GF/C glass fibre filters and 2×5 ml wash with ice-cold buffer. Bound radioactivity was measured by scintillation counting. IC50 was determined by Hill analysis of at least four concentrations of test compound.

[1] = system: quisqualic acid stimulated spreading depression in chicken retina; experiment: Spreading depression (Test 2): antagonism of quisqualic acid stimulated spreading depression in chicken retina; assay type: cell-based; conditions: Gallus gallus, 0.25 h, quisqualate 1 μg/ml, 26° C., 15 min incubation with test compound, read-out: TEST 2 IC50 (50% maximal inhibition of quisqualic acid stimulated spreading depression)
Excerpt: The influence of glutamic acid analogues on secondary effects of glutamate receptor interactions may be studied in vitro by using the phenomenon of spreading depression in chicken retina. Such experiments will provide information as to the efficacies (agonist/antagonist) of the test substances. This is in contrast to binding studies, which only provide information on the affinities of the compounds for the receptor.
The pharmacological properties of the compounds of the present invention can be illustrated by determining their capability for displacing radioactively labelled 2-amino-3-hydroxy-5-methyl-4-isoxazolepropionic acid (AMPA) from the AMPA type receptors. […]
The eyes were initially incubated in normal P.S.S. for 15-30 min. and then transferred to P.S.S. containing quisqualate (1 μg/ml). […] The time taken for an S.D. to start in each eye was measured.
After a further 15 min. of incubation in normal P.S.S. the eyes were transferred to normal P.S.S. containing the test compound and incubated for 15 min. […] The time taken for an S.D. to start in each eye was measured again. The eyes were then placed back in normal P.S.S. and after 15 min. the time taken for S.D. to start was measured again, in order to assess the degree of recovery from any drug effects. […]

[2] = system: NMDA (N-methyl-D-aspartate) receptors; conditions: cited from earlier work
kainate receptors = conditions: cited from earlier work

SMILES: N[C@@H](CCC(=O)O)C(=O)O [L-glutamic acid]
agonist activity at AMPA receptors (AMPA receptors): potent agonists

IC50 (AMPA type receptors): 1.7 µM
IC50 [1]: 4.8 µM
SMILES: O=c1[nH]c2cc(-n3ccnc3)c(C(F)(F)F)cc2n2c(=O)[nH]nc12 [Example 2, 7-(1H-Imidazol-1-yl)-8-trifluoromethyl[1,2,4]triazolo[4,3-a]quinoxaline-1,4(2H,5H)-dione]

SMILES: N[C@H](C(=O)O)c1cc(=O)[nH]o1 [Ibotenic acid]
agonist activity on NMDA receptors [2]: strong to moderate agonist activity

SMILES: O=C(O)C1CN(CCCP(=O)(O)O)CCN1 (racemic) [CPP, 3-[(±)-2-carboxy-piperazin-4-yl]-propyl-1-phosphonic acid]
antagonist activity at NMDA receptors [2]: most potent and selective antagonists

SMILES: N[C@H](CCCC(=O)O)C(=O)O [D-2-amino-adipic acid]
antagonist activity at NMDA receptors [2]: moderate antagonist activity

SMILES: N[C@@H](CCS(=O)(=O)O)C(=O)O [L-homocysteic acid]
agonist activity on NMDA receptors [2]: strong to moderate agonist activity

SMILES: O=C(O)[C@@H]1CCCN[C@H]1C(=O)O (relative stereo) [trans-2,3-PDA, trans-2,3-piperidine dicarboxylic acid]
agonist activity on NMDA receptors [2]: strong to moderate agonist activity

SMILES: Cc1onc(O)c1CC(N)C(=O)O (stereo not drawn) [AMPA, 2-amino-3-hydroxy-5-methyl-4-isoxazolepropionic acid]
agonist activity at AMPA receptors (AMPA receptors): activated selectively

SMILES: N[C@H](CCCP(=O)(O)O)C(=O)O [D-APV, 2-amino-5-phosphono-valeric acid]
antagonist activity at NMDA receptors [2]: most potent and selective antagonists

SMILES: N[C@H](CCC(=O)O)C(=O)O [D-glutamic acid]
agonist activity on NMDA receptors [2]: strong to moderate agonist activity

SMILES: CCOC(=O)CC[C@H](N)C(=O)OCC [GDEE, Glutamic acid diethyl ester]
sensitivity of excitatory responses to kainic acid to antagonism (kainate receptors): relatively insensitive
antagonist activity at AMPA receptors (AMPA receptors): selective but very weak antagonist

SMILES: N[C@@H](CCC(=O)NCC(=O)O)C(=O)O [3-glutamyl-glycine]
antagonism / selectivity at kainate receptors (kainate receptors; O. Goldberg et al. 1981): some selectivity for kainate receptors

SMILES: N[C@@H](Cn1oc(=O)[nH]c1=O)C(=O)O [quisqualic acid]
agonist activity at AMPA receptors (AMPA receptors): potent agonists

SMILES: N[C@H](CCC[C@H](N)C(=O)O)C(=O)O [diaminopimelic acid]
antagonist activity at NMDA receptors [2]: moderate antagonist activity

IC50 (AMPA type receptors): 0.18 µM
IC50 [1]: 3.9 µM
SMILES: O=c1[nH]c2cc(-n3ccnc3)ccc2n2c(=O)[nH]nc12 [Example 1, 7-(1H-Imidazol-1-yl)[1,2,4]triazolo[4,3-a]quinoxaline-1,4(2H,5H)-dione]
